Experimental findings from patent publication US20240360119A1, “SMALL MOLECULE UREA DERIVATIVES AS STING ANTAGONISTS” (CURADEV PHARMA PVT. LTD., priority 2021, published 2024) are described below.

pIC50: −log10 of the molar value.

The assay relates to STING (IRF pathway reporter in THP1-Dual™ cells, THP-1 (HAQ)). In words: Reporter gene expression assay in THP-1 cells (THP1-Dual, IRF pathway Lucia luciferase, 2′,3′-cGAMP stimulation). The class given is cell-based, human. The settings on record: 10 min preincubation, 5 μM 2′,3′-cGAMP, 20 hr, IRF pathway luciferase (QUANTI-Luc), IC50 range class. As to the method:
THP1-Dual™ cells (Invivogen) were derived from the human THP-1 monocyte cell line by stable integration of two inducible reporter constructs. As a result, THP1-Dual™ cells allow the simultaneous study of the IRF pathway, by assessing the activity of a secreted luciferase (Lucia) and the NF-κB pathway, by monitoring the activity of secreted SEAP. 5×10^4 THP1-Dual™ cells were seeded in 384-well plates in growth medium and preincubated with novel compounds for 10 minutes followed by stimulation with 5 μM 2′,3′-cGAMP. After 20 hr of stimulation the supernatant was removed and the IRF pathway reporter protein was readily measured in the cell culture supernatant using QUANTI-Luc™ (Invivogen), a luciferase detection reagent on a Spectramax i3X luminometer.
In the tables below, IC50 value ranges for exemplary compounds are given. The IC50 ranges are indicated as “A” for values less than or equal to 1 μM, “B” for values greater than 1 μM and less than or equal to 10 μM, and “C” for values greater than 10 μM.
A general note: A reporter such as luciferase makes a cellular process visible.

A word on the pIC50: it is the negative decadic logarithm of the IC50, by convention in mol/L. Lower therefore signals a large IC50. With `CN(C)C(=O)CC(NC(=O)Nc1ccc2cc[nH]c2c1)c1ccc2c(c1)N(Cc1ccccc1)CCS2` (racemic) [Example 4, 3-(3-(1H-indol-6-yl)ureido)-3-(4-benzyl-3,4-dihydro-2H-benzo[b][1,4]thiazin-6-yl)-N,N-dimethylpropanamide], the pIC50 (Homo sapiens) is 5.00 to 6.00.
On the same count and under the same terms, for `O=C(Nc1ccc2cc[nH]c2c1)NC(CO)c1ccc2c(c1)N(Cc1ccccc1)CCS2` (racemic) [Example 11, 1-(1-(4-Benzyl-3,4-dihydro-2H-benzo[b][1,4]thiazin-6-yl)-2-hydroxyethyl)-3-(1H-indol-6-yl)urea] the value was at least 6.00.
Under “Homo sapiens”, `CN(C)C(=O)CC(NC(=O)Nc1ccc2cc[nH]c2c1)c1ccc2c(c1)N(Cc1ccccc1)CCS2` (single isomer, unassigned) [Example 5, 3-(3-(1H-indol-6-yl)ureido)-3-(4-benzyl-3,4-dihydro-2H-benzo[b][1,4]thiazin-6-yl)-N,N-dimethylpropanamide] gave a pIC50 of 5.00 to 6.00.
Turning to `CN(C)C(=O)CC(NC(=O)Nc1ccc2cc[nH]c2c1)c1ccc2c(c1)N(Cc1ccccc1)CCS2` (single isomer, unassigned) [Example 6, 3-(3-(1H-indol-6-yl)ureido)-3-(4-benzyl-3,4-dihydro-2H-benzo[b][1,4]thiazin-6-yl)-N,N-dimethylpropanamide], the pIC50 was 5.00 to 6.00.
As to `O=C(Nc1ccc2cc[nH]c2c1)NC(CC(O)CO)c1ccc2c(c1)N(Cc1ccccc1)CCO2` (single isomer, unassigned) [Example 7, 1-(1-(4-Benzyl-3,4-dihydro-2H-benzo[b][1,4]oxazin-6-yl)-3,4-dihydroxybutyl)-3-(1H-indol-6-yl)urea], the negative logarithm of the IC50 (pIC50) (Homo sapiens) is below 5.00.
`O=C(Nc1ccc2cc[nH]c2c1)NC(CC(O)CO)c1ccc2c(c1)N(Cc1ccccc1)CCO2` (single isomer, unassigned) [Example 8, 1-(1-(4-Benzyl-3,4-dihydro-2H-benzo[b][1,4]oxazin-6-yl)-3,4-dihydroxybutyl)-3-(1H-indol-6-yl)urea] showed a pIC50 below 5.00.
As to `O=C(Nc1ccc2cc[nH]c2c1)NC(CO)c1ccc2c(c1)N(Cc1ccccc1)CCS2` (single isomer, unassigned) [Example 12, 1-(1-(4-benzyl-3,4-dihydro-2H-benzo[b][1,4]thiazin-6-yl)-2-hydroxyethyl)-3-(1H-indol-6-yl)urea], the negative-log IC50 (pIC50) (Homo sapiens) is at least 6.00.
Compound `O=C(Nc1ccc2cc[nH]c2c1)NC(CO)c1ccc2c(c1)N(Cc1ccccc1)CCS2` (single isomer, unassigned) [Example 13, 1-(1-(4-benzyl-3,4-dihydro-2H-benzo[b][1,4]thiazin-6-yl)-2-hydroxyethyl)-3-(1H-indol-6-yl)urea] had a pIC50 of at least 6.00.
On to `O=C(NCc1ccc2c(c1)N(Cc1ccccc1)CCS2)Nc1ccc2cc[nH]c2c1` [Example 1, 1-((4-Benzyl-3,4-dihydro-2H-benzo[b][1,4]thiazin-6-yl)methyl)-3-(1H-indol-6-yl)urea], for which the pIC50 (Homo sapiens) was at least 6.00.
Same read-out and setting: the value for `O=C(NCc1ccc2c(c1)OCC(=O)N2Cc1ccccc1)Nc1ccc2cc[nH]c2c1` [Example 2, 1-((4-Benzyl-3-oxo-3,4-dihydro-2H-benzo[b][1,4]oxazin-7-yl)methyl)-3-(1H-indol-6-yl)urea] was 5.00 to 6.00.
Consider `O=C(NCc1ccc2c(c1)OCCN2Cc1ccccc1)Nc1ccc2cc[nH]c2c1` [Example 3, 1-((4-Benzyl-3,4-dihydro-2H-benzo[b][1,4]oxazin-7-yl)methyl)-3-(1H-indol-6-yl)urea], for which the pIC50 (Homo sapiens) was at least 6.00.
`C=CCC(NC(=O)Nc1ccc2cc[nH]c2c1)c1ccc2c(c1)N(Cc1ccccc1)CCS2` (stereo not shown) [Example 9, 1-(1-(4-Benzyl-3,4-dihydro-2H-benzo[b][1,4]thiazin-6-yl)but-3-en-1-yl)-3-(1H-indol-6-yl)urea] gave a pIC50 (Homo sapiens) of at least 6.00.
`O=C(O)CC(NC(=O)Nc1ccc2cc[nH]c2c1)c1ccc2c(c1)N(Cc1ccccc1)CCS2` (stereo not shown) [Example 10, 3-(3-(1H-Indol-6-yl)ureido)-3-(4-benzyl-3,4-dihydro-2H-benzo[b][1,4]thiazin-6-yl)propanoic acid]: under “Homo sapiens”, the pIC50 is below 5.00.
On to `O=C(NCc1ccc2c(c1)N(c1ccccc1)CCS2)Nc1ccc2cc[nH]c2c1` [Example 14, 1-(1H-Indol-6-yl)-3-((4-phenyl-3,4-dihydro-2H-benzo[b][1,4]thiazin-6-yl)methyl)urea], for which the pIC50 (Homo sapiens) is at least 6.00.
For the setting “Homo sapiens”, `O=C(NCc1ccc2c(c1)N(Cc1ccccc1)CCO2)Nc1ccc2cc[nH]c2c1` [Example 15, 1-((4-benzyl-3,4-dihydro-2H-benzo[b][1,4]oxazin-6-yl)methyl)-3-(1H-indol-6-yl)urea] had a pIC50 of at least 6.00.
Compound `O=C(NCc1ccc2c(c1)SCCN2Cc1ccccc1)Nc1ccc2cc[nH]c2c1` [Example 16, 1-((4-benzyl-3,4-dihydro-2H-benzo[b][1,4]thiazin-7-yl)methyl)-3-(1H-indol-6-yl)urea] had a pIC50 (Homo sapiens) of at least 6.00.
For `O=C(NCc1ccc2c(c1)SCC(=O)N2Cc1ccccc1)Nc1ccc2cc[nH]c2c1` [Example 17, 1-((4-benzyl-3-oxo-3,4-dihydro-2H-benzo[b][1,4]thiazin-7-yl)methyl)-3-(1H-indol-6-yl)urea], under “Homo sapiens”, the pIC50 is at least 6.00.
In turn, `O=C(NCc1ccc2c(c1)N(Cc1ccccc1)C(=O)CS2)Nc1ccc2cc[nH]c2c1` [Example 18, 1-((4-benzyl-3-oxo-3,4-dihydro-2H-benzo[b][1,4]thiazin-6-yl)methyl)-3-(1H-indol-6-yl)urea] had a negative-log IC50 (pIC50) (Homo sapiens) of 5.00 to 6.00.
Under “Homo sapiens”, `O=C(NCc1ccc2c(c1)N(c1ccccc1)CCO2)Nc1ccc2cc[nH]c2c1` [Example 19, 1-(1H-indol-6-yl)-3-((4-phenyl-3,4-dihydro-2H-benzo[b][1,4]oxazin-6-yl)methyl)urea] had a pIC50 of at least 6.00.
The compound `O=C(NCc1ccc2c(c1)SCCN2c1ccccc1)Nc1ccc2cc[nH]c2c1` [Example 20, 1-(1H-indol-6-yl)-3-((4-phenyl-3,4-dihydro-2H-benzo[b][1,4]thiazin-7-yl)methyl)urea] showed a pIC50 (Homo sapiens) of 5.00 to 6.00.
`O=C(NCc1ccc2c(c1)OCCN2c1ccccc1)Nc1ccc2cc[nH]c2c1` [Example 21, 1-(1H-indol-6-yl)-3-((4-phenyl-3,4-dihydro-2H-benzo[b][1,4]oxazin-7-yl)methyl)urea] gave a pIC50 (Homo sapiens) of at least 6.00.
The compound `O=C(Nc1ccc2cc[nH]c2c1)NC(CCN1CCOCC1)c1ccc2c(c1)N(Cc1ccccc1)CCS2` (stereo not shown) [Example 22, 1-(1-(4-benzyl-3,4-dihydro-2H-benzo[b][1,4]thiazin-6-yl)-3-morpholinopropyl)-3-(1H-indol-6-yl)urea] gave a pIC50 (Homo sapiens) below 5.00.
Regarding `NC(=O)CC(NC(=O)Nc1ccc2cc[nH]c2c1)c1ccc2c(c1)N(Cc1ccccc1)CCS2` (stereo not shown) [Example 23, 3-(3-(1H-indol-6-yl)ureido)-3-(4-benzyl-3,4-dihydro-2H-benzo[b][1,4]thiazin-6-yl)propanamide], the pIC50 (Homo sapiens) is at least 6.00.
Regarding `O=C(Nc1ccc2cc[nH]c2c1)NC(CCO)c1ccc2c(c1)N(Cc1ccccc1)CCS2` (stereo not shown) [Example 24, 1-(1-(4-benzyl-3,4-dihydro-2H-benzo[b][1,4]thiazin-6-yl)-3-hydroxypropyl)-3-(1H-indol-6-yl)urea], under “Homo sapiens”, the pIC50 was below 5.00.
Same read-out and setting: for `O=C(Nc1ccc2cc[nH]c2c1)NC(CC(O)CO)c1ccc2c(c1)N(Cc1ccccc1)CC[S+]2[O-]` (stereo not shown) [Example 25, 1-(1-(4-benzyl-1-oxido-3,4-dihydro-2H-benzo[b][1,4]thiazin-6-yl)-3,4-dihydroxybutyl)-3-(1H-indol-6-yl)urea] the value was below 5.00.
Regarding `CNC(=O)CC(NC(=O)Nc1ccc2cc[nH]c2c1)c1ccc2c(c1)N(Cc1ccccc1)CCS2` (stereo not shown) [Example 26, 3-(3-(1H-indol-6-yl)ureido)-3-(4-benzyl-3,4-dihydro-2H-benzo[b][1,4]thiazin-6-yl)-N-methylpropanamide], the pIC50 (Homo sapiens) was 5.00 to 6.00.
`O=C(Nc1ccc2cc[nH]c2c1)NC(CC(=O)N1CCCC1)c1ccc2c(c1)N(Cc1ccccc1)CCS2` (stereo not shown) [Example 27, 1-(1-(4-benzyl-3,4-dihydro-2H-benzo[b][1,4]thiazin-6-yl)-3-oxo-3-(pyrrolidin-1-yl)propyl)-3-(1H-indol-6-yl)urea] had a pIC50 (Homo sapiens) of 5.00 to 6.00.
For the setting “Homo sapiens”, `CON(C)C(=O)CC(NC(=O)Nc1ccc2cc[nH]c2c1)c1ccc2c(c1)N(Cc1ccccc1)CCS2` (stereo not shown) [Example 28, 3-(3-(1H-indol-6-yl)ureido)-3-(4-benzyl-3,4-dihydro-2H-benzo[b][1,4]thiazin-6-yl)-N-methoxy-N-methylpropanamide] had a negative logarithm of the IC50 (pIC50) of 5.00 to 6.00.
For `O=C(Nc1ccc2cc[nH]c2c1)NC(CC(=O)N1CCC(O)C1)c1ccc2c(c1)N(Cc1ccccc1)CCS2` (stereo not shown) [Example 29, 1-(1-(4-benzyl-3,4-dihydro-2H-benzo[b][1,4]thiazin-6-yl)-3-(3-hydroxypyrrolidin-1-yl)-3-oxopropyl)-3-(1H-indol-6-yl)urea], the pIC50 (Homo sapiens) was below 5.00.
With `O=C(Nc1ccc2cc[nH]c2c1)NC(CC(=O)N1CCOCC1)c1ccc2c(c1)N(Cc1ccccc1)CCS2` (stereo not shown) [Example 30, 1-(1-(4-benzyl-3,4-dihydro-2H-benzo[b][1,4]thiazin-6-yl)-3-morpholino-3-oxopropyl)-3-(1H-indol-6-yl)urea], where the note is “Homo sapiens”, the pIC50 was 5.00 to 6.00.
Consider `CN(CCO)C(=O)CC(NC(=O)Nc1ccc2cc[nH]c2c1)c1ccc2c(c1)N(Cc1ccccc1)CCS2` (stereo not shown) [Example 31, 3-(3-(1H-indol-6-yl)ureido)-3-(4-benzyl-3,4-dihydro-2H-benzo[b][1,4]thiazin-6-yl)-N-(2-hydroxyethyl)-N-methylpropanamide], for which, under “Homo sapiens”, the pIC50 is 5.00 to 6.00.
